Experimental data published in the NIST ThermoML archive (doi:10.1016/j.tca.2015.06.017).

Assay: xn = mol fraction of the nth substance listed
Conditions: Liquid, Vibrating tube method

CC(C)CCl [1-chloro-2-methylpropane] + CCCCCCC
mass density [kg/m3]
Conditions	303.15 K	313.15 K	323.15 K
100 kPa, x2 = 0.0531	851.74	840.36	828.79
100 kPa, x2 = 0.1023	839.04	827.85	816.48
100 kPa, x2 = 0.2009	815.06	804.22	793.26
100 kPa, x2 = 0.3009	792.69	782.2	771.57
100 kPa, x2 = 0.3981	772.58	762.38	752.04
100 kPa, x2 = 0.4986	753.31	743.42	733.39
100 kPa, x2 = 0.5998	735.29	725.7	715.95
100 kPa, x2 = 0.7038	718.11	708.77	699.34
100 kPa, x2 = 0.7993	703.45	694.32	685.15
100 kPa, x2 = 0.8995	689.05	680.21	671.24
100 kPa, x2 = 0.9507	682.07	673.34	664.49
2000 kPa, x2 = 0.0531	853.98	842.7	831.42
2000 kPa, x2 = 0.1023	841.31	830.21	819.08
2000 kPa, x2 = 0.2009	817.39	806.67	795.85
2000 kPa, x2 = 0.3009	794.98	784.62	774.11
2000 kPa, x2 = 0.3981	774.81	764.76	754.54
2000 kPa, x2 = 0.4986	755.48	745.75	735.78
2000 kPa, x2 = 0.5998	737.44	727.98	718.28
2000 kPa, x2 = 0.7038	720.22	711.05	701.64
2000 kPa, x2 = 0.7993	705.49	696.57	687.35
2000 kPa, x2 = 0.8995	691.14	682.44	673.46
2000 kPa, x2 = 0.9507	684.19	675.59	666.75
5000 kPa, x2 = 0.0531	857.38	846.39	835.4
5000 kPa, x2 = 0.1023	844.68	833.87	823.02
5000 kPa, x2 = 0.2009	820.73	810.25	799.77
5000 kPa, x2 = 0.3009	798.27	788.13	777.97
5000 kPa, x2 = 0.3981	778.06	768.2	758.35
5000 kPa, x2 = 0.4986	758.67	749.13	739.53
5000 kPa, x2 = 0.5998	740.59	731.29	721.98
5000 kPa, x2 = 0.7038	723.33	714.28	705.28
5000 kPa, x2 = 0.7993	708.59	699.76	690.97
5000 kPa, x2 = 0.8995	694.18	685.54	677.02
5000 kPa, x2 = 0.9507	687.22	678.7	670.29
7000 kPa, x2 = 0.0531	859.64	848.82	838.13
7000 kPa, x2 = 0.1023	846.92	836.28	825.7
7000 kPa, x2 = 0.2009	822.92	812.64	802.4
7000 kPa, x2 = 0.3009	800.42	790.49	780.57
7000 kPa, x2 = 0.3981	780.18	770.54	760.9
7000 kPa, x2 = 0.4986	760.74	751.42	742.03
7000 kPa, x2 = 0.5998	742.6	733.56	724.42
7000 kPa, x2 = 0.7038	725.32	716.53	707.68
7000 kPa, x2 = 0.7993	710.55	701.96	693.36
7000 kPa, x2 = 0.8995	696.12	687.72	679.35
7000 kPa, x2 = 0.9507	689.13	680.86	672.58
10000 kPa, x2 = 0.0531	862.96	852.24	841.75
10000 kPa, x2 = 0.1023	850.21	839.68	829.31
10000 kPa, x2 = 0.2009	826.15	815.97	805.94
10000 kPa, x2 = 0.3009	803.62	793.76	784.05
10000 kPa, x2 = 0.3981	783.33	773.76	764.32
10000 kPa, x2 = 0.4986	763.84	754.58	745.38
10000 kPa, x2 = 0.5998	745.64	736.65	727.75
10000 kPa, x2 = 0.7038	728.31	719.62	710.93
10000 kPa, x2 = 0.7993	713.5	705.01	696.57
10000 kPa, x2 = 0.8995	699.03	690.72	682.48
10000 kPa, x2 = 0.9507	692.03	683.8	675.7
20000 kPa, x2 = 0.0531	873	863.01	853.08
20000 kPa, x2 = 0.1023	860.17	850.29	840.6
20000 kPa, x2 = 0.2009	835.94	826.35	817.1
20000 kPa, x2 = 0.3009	813.23	804.06	794.98
20000 kPa, x2 = 0.3981	792.77	783.83	775.23
20000 kPa, x2 = 0.4986	773.13	764.52	755.93
20000 kPa, x2 = 0.5998	754.8	746.45	738.09
20000 kPa, x2 = 0.7038	737.29	729.18	721.08
20000 kPa, x2 = 0.7993	722.32	714.39	706.61
20000 kPa, x2 = 0.8995	707.71	699.99	692.36
20000 kPa, x2 = 0.9507	700.65	692.96	685.54
30000 kPa, x2 = 0.0531	882.09	872.66	863.29
30000 kPa, x2 = 0.1023	869.13	859.97	850.64
30000 kPa, x2 = 0.2009	844.8	835.81	826.96
30000 kPa, x2 = 0.3009	821.91	813.29	804.68
30000 kPa, x2 = 0.3981	801.3	792.99	784.58
30000 kPa, x2 = 0.4986	781.52	773.45	765.27
30000 kPa, x2 = 0.5998	763.03	755.17	747.25
30000 kPa, x2 = 0.7038	745.43	737.72	730.1
30000 kPa, x2 = 0.7993	730.33	722.79	715.4
30000 kPa, x2 = 0.8995	715.6	708.23	700.96
30000 kPa, x2 = 0.9507	708.5	701.14	694.07
40000 kPa, x2 = 0.0531	890.44	881.46	872.52
40000 kPa, x2 = 0.1023	877.39	868.66	859.81
40000 kPa, x2 = 0.2009	852.91	844.37	835.84
40000 kPa, x2 = 0.3009	829.87	821.69	813.46
40000 kPa, x2 = 0.3981	809.15	801.27	793.25
40000 kPa, x2 = 0.4986	789.24	781.56	773.87
40000 kPa, x2 = 0.5998	770.61	763.14	755.68
40000 kPa, x2 = 0.7038	752.83	745.56	738.29
40000 kPa, x2 = 0.7993	737.59	730.5	723.4
40000 kPa, x2 = 0.8995	722.73	715.76	708.85
40000 kPa, x2 = 0.9507	715.55	708.64	701.87
50000 kPa, x2 = 0.0531	898.25	889.63	881.03
50000 kPa, x2 = 0.1023	885.12	876.7	868.25
50000 kPa, x2 = 0.2009	860.41	852.23	844.11
50000 kPa, x2 = 0.3009	837.32	829.5	821.56
50000 kPa, x2 = 0.3981	816.52	808.88	801.14
50000 kPa, x2 = 0.4986	796.41	789.11	781.63
50000 kPa, x2 = 0.5998	777.65	770.57	763.29
50000 kPa, x2 = 0.7038	759.78	752.8	745.73
50000 kPa, x2 = 0.7993	744.45	737.67	730.8
50000 kPa, x2 = 0.8995	729.47	722.82	716.06
50000 kPa, x2 = 0.9507	722.23	715.59	709.05
60000 kPa, x2 = 0.0531	905.4	897.18	888.87
60000 kPa, x2 = 0.1023	892.33	884.27	876.05
60000 kPa, x2 = 0.2009	867.48	859.72	851.78
60000 kPa, x2 = 0.3009	844.24	836.81	829.15
60000 kPa, x2 = 0.3981	823.28	815.99	808.64
60000 kPa, x2 = 0.4986	803.13	796.1	788.91
60000 kPa, x2 = 0.5998	784.27	777.45	770.47
60000 kPa, x2 = 0.7038	766.25	759.57	752.78
60000 kPa, x2 = 0.7993	750.88	744.29	737.68
60000 kPa, x2 = 0.8995	735.73	729.33	722.83
60000 kPa, x2 = 0.9507	728.44	722.04	715.76
65000 kPa, x2 = 0.0531	908.87	900.74	892.62
65000 kPa, x2 = 0.1023	895.79	887.8	879.77
65000 kPa, x2 = 0.2009	870.84	863.12	855.45
65000 kPa, x2 = 0.3009	847.58	840.18	832.75
65000 kPa, x2 = 0.3981	826.58	819.3	812.18
65000 kPa, x2 = 0.4986	806.34	799.37	792.37
65000 kPa, x2 = 0.5998	787.42	780.62	773.88
65000 kPa, x2 = 0.7038	769.32	762.72	756.14
65000 kPa, x2 = 0.7993	753.84	747.34	741.15
65000 kPa, x2 = 0.8995	738.7	732.38	726.04
65000 kPa, x2 = 0.9507	731.35	725.02	718.95
